Read-outs that look alike come from different tables or passages of the source. Blank lines part the entries; values can stand above or below the compound they belong to.
Tests used:
Bacillus cereus = experiment: Antimicrobial screening, resazurine test; type: cell-based; conditions: Bacillus cereus, B. cereus, read-out: Inhibition of the microorganism; for inhibition at 25 µg/mL: c = 25 µg·mL-1; for inhibition at 50 µg/mL: c = 50 µg·mL-1; for inhibition at 100 µg/mL: c = 100 µg·mL-1
Method: (§1) The resazurine test was used to evaluate this activity.
(§2) The cell inoculum was made in Mueller–Hinton broth (10 mL). Colonies of cells were inoculated from the solid medium that was cultivated for 24 h under optimum conditions. A part of the inoculum was diluted to get suspension with an optical density 0.6 to 0.9 McF. An aliquot amount (1 mL) was taken and diluted with additional volume of the medium (19 mL). The stored solutions of the tested compounds were made at a concentration c = 200 µg.mL^−1. The stored suspensions of the cells, MHB medium, solutions of the antibiotics specific for the given bacteria (vancomycin for S. aureus and E. faecalis, kanamycin for E. coli and P. aeruginosa, and tetracycline for B. cereus), and the solutions of the compounds were pipetted into the microtitration plates. Subsequently, a concentration sequence of the tested compounds was made (c = 100, 50, and 25 µg.mL^−1). The content of the microtitration plates was cultivated for 24 h under optimum conditions for the given bacteria. A solution of resazurine was made, based on a dilution of its stored solution (c = 0.15 mg.mL^−1; 2 mL) into the MHB medium (18 mL). Then, it was pipetted into the microtitration plates that were cultivated for an additional 1 h. Finally, fluorescence measurement (excitation at 560 nm, emission at 590 nm) was made, and the inhibition of the bacterium was determined.
(§3) 2. Antimicrobial screening tests
(§4) Antimicrobial activity of the target molecular ribbons 8a, 12a, 8b, 12b, 4c, 6c, 6d and 8d, and […]
(§5) aeruginosa, Staphylococcus aureus and Enterococcus faecalis. The resazurine test was used to […]
(§6) ribbons which have been achieved in this investigation.
(§7) Table S1. Antimicrobial activity, inhibition of the microorganism [%]
(§8) Comp. Staphylococcus aureus Comp. Escherichia coli […]
(§9) µg·mL-1 µg·mL-1 µg·mL-1 µg·mL-1 µg·mL-1 µg·mL-1
(§10) Comp. Bacillus cereus Comp. Pseudomonas aeruginosa

Enterococcus faecalis = experiment: Antimicrobial screening, resazurine test; type: cell-based; conditions: Enterococcus faecalis, read-out: Inhibition of the microorganism; for inhibition at 50 µg/mL: c = 50 µg·mL-1; for inhibition at 100 µg/mL: c = 100 µg·mL-1
Method: as §1, §2, §3, §4, §5, §6, §7, §8, §9, §10

Escherichia coli = experiment: Antimicrobial screening, resazurine test; type: cell-based; conditions: Escherichia coli, E. coli, read-out: Inhibition of the microorganism; for inhibition at 25 µg/mL: c = 25 µg·mL-1; for inhibition at 50 µg/mL: c = 50 µg·mL-1; for inhibition at 100 µg/mL: c = 100 µg·mL-1
Method: as §1, §2, §3, §4, §5, §6, §7, §8, §9, §10

Pseudomonas aeruginosa = experiment: Antimicrobial screening, resazurine test; type: cell-based; conditions: P. aeruginosa; for inhibition at 25 µg/mL: c = 25 µg·mL-1, read-out: Inhibition of the microorganism; for inhibition at 50 µg/mL: c = 50 µg·mL-1, read-out: Inhibition of the microorganism; for inhibition at 100 µg/mL: c = 100 µg·mL-1, read-out: Inhibition of the microorganism
Method: as §1, §2, §3, §4, §5, §6, §7, §8, §9, §10

Staphylococcus aureus = experiment: Antimicrobial screening, resazurine test; type: cell-based; conditions: Staphylococcus aureus, read-out: Inhibition of the microorganism; for inhibition at 50 µg/mL: c = 50 µg·mL-1; for inhibition at 100 µg/mL: c = 100 µg·mL-1
Method: as §1, §2, §3, §4, §5, §6, §7, §8, §9, §10

[1] = Ability to form supramolecular gel; type: physicochemical; conditions: 1% w/v in solvent, ultrasound 30 min, heated to boiling, cooled to r.t. 24 h
Method: The solutions of the studied compounds 8a, 12a, 8b, 12b, 4c, 6c, 6d, and 8d (1%, w/v) in the appropriate solvent were mixed with ultrasound for 30 min, then heated to the boiling points of the used solvents, and then allowed to cool down to the r.t. for 24 h. An example of the resulting gels that were produced from 8a, 4c, 6c, and 6d is shown in the Supplementary Material, Figure S1.

Structure (SMILES): CN(C)[C@@H]1C(O)=C(C(N)=O)C(=O)[C@@]2(O)C(O)=C3C(=O)c4c(O)cccc4[C@@](C)(O)[C@H]3C[C@@H]12 [tetracycline, reference compound]
inhibition at 25 µg/mL (Bacillus cereus): 99%

Structure (SMILES): CC1(C)C=C2[C@H]3CC[C@@H]4[C@@]5(C)CCC(=O)C(C)(C)[C@@H]5CC[C@@]4(C)[C@]3(C)CC[C@@]2(C(=O)O)CC1 [1c, moronic acid, reference compound]
inhibition at 25 µg/mL (Bacillus cereus): 0 to 1%
inhibition at 50 µg/mL (Bacillus cereus): 15 ± 2.3%
inhibition at 100 µg/mL (Bacillus cereus): 66 ± 9.9%
inhibition at 25 µg/mL (Enterococcus faecalis; E. faecalis, c = 25 µg·mL-1): 0 to 1%
inhibition at 50 µg/mL (Enterococcus faecalis; E. faecalis): 0 to 1%
inhibition at 100 µg/mL (Enterococcus faecalis; E. faecalis): 0 to 1%
inhibition at 25 µg/mL (Escherichia coli): 0 to 1%
inhibition at 50 µg/mL (Escherichia coli): 0 to 1%
inhibition at 100 µg/mL (Escherichia coli): 0 to 1%
inhibition at 25 µg/mL (Pseudomonas aeruginosa): 0 to 1%
inhibition at 50 µg/mL (Pseudomonas aeruginosa): 0 to 1%
inhibition at 100 µg/mL (Pseudomonas aeruginosa): 0 to 1%
inhibition at 25 µg/mL (Staphylococcus aureus; S. aureus, c = 25 µg·mL-1): 0 to 1%
inhibition at 50 µg/mL (Staphylococcus aureus; S. aureus): 3 ± 0.5%
inhibition at 100 µg/mL (Staphylococcus aureus; S. aureus): 10 ± 1.5%

Gel formation [1]: produced a gel in glycerol
Structure (SMILES): CC1(C)C=C2[C@H]3CC[C@@H]4[C@@]5(C)CCC(=O)C(C)(C)[C@@H]5CC[C@@]4(C)[C@]3(C)CC[C@@]2(C(=O)NCCOCCOCCOCCn2cc(CO[C@H]3CC[C@]4(C)[C@H]5CC=C6C7CC(C)(C)CC[C@]7(C(=O)O)CC[C@@]6(C)[C@]5(C)CC[C@H]4C3(C)C)nn2)CC1 (stereo partly shown) [6c]
inhibition at 25 µg/mL (Bacillus cereus): 7 ± 1%
inhibition at 50 µg/mL (Bacillus cereus): 19 ± 2.9%
inhibition at 100 µg/mL (Bacillus cereus): 13 ± 2%
inhibition at 25 µg/mL (Enterococcus faecalis; E. faecalis, c = 25 µg·mL-1): 0 to 1%
inhibition at 50 µg/mL (Enterococcus faecalis; E. faecalis): 25 ± 3.8%
inhibition at 100 µg/mL (Enterococcus faecalis; E. faecalis): 36 ± 5.4%
inhibition at 25 µg/mL (Escherichia coli): 10 ± 1.5%
inhibition at 50 µg/mL (Escherichia coli): 18 ± 2.7%
inhibition at 100 µg/mL (Escherichia coli): 30 ± 4.5%
inhibition at 25 µg/mL (Pseudomonas aeruginosa): 12 ± 1.8%
inhibition at 50 µg/mL (Pseudomonas aeruginosa): 69 ± 10.4%
inhibition at 100 µg/mL (Pseudomonas aeruginosa): 60 ± 9%
inhibition at 25 µg/mL (Staphylococcus aureus; S. aureus, c = 25 µg·mL-1): 13 ± 2%
inhibition at 50 µg/mL (Staphylococcus aureus; S. aureus): 51 ± 7.7%
inhibition at 100 µg/mL (Staphylococcus aureus; S. aureus): 27 ± 4%

Structure (SMILES): CN[C@H](CC(C)C)C(=O)N[C@H]1C(=O)N[C@@H](CC(N)=O)C(=O)N[C@H]2C(=O)N[C@H]3C(=O)N[C@H](C(=O)N[C@H](C(=O)O)c4cc(O)cc(O)c4-c4cc3ccc4O)[C@H](O)c3ccc(c(Cl)c3)Oc3cc2cc(c3O[C@@H]2O[C@H](CO)[C@@H](O)[C@H](O)[C@H]2O[C@H]2C[C@](C)(N)[C@H](O)[C@H](C)O2)Oc2ccc(cc2Cl)[C@H]1O [vancomycin, reference compound]
inhibition at 25 µg/mL (Enterococcus faecalis): 99%
inhibition at 25 µg/mL (Staphylococcus aureus): 99%

Source: PMC8391127, “Triterpenoid–PEG Ribbons Targeting Selectivity in Pharmacological Effects” (Biomedicines, 2021)
